ChEMBL document CHEMBL1125353, “Structure-activity studies on benzhydrol-containing nipecotic acid and guvacine derivatives as potent, orally-active inhibitors of GABA uptake” (J Med Chem, 1992)

Key:
Rattus norvegicus [1] = species: Rattus norvegicus; experiment: In vitro inhibition of [3H]GABA uptake in rat Hippocampal slices.; assay type: functional, organism-based
Rattus norvegicus [2] = species: Rattus norvegicus; experiment: In vitro Inhibitory activity against GABA uptake; assay type: functional
Rattus norvegicus [3] = experiment: Anticonvulsant activity against kindled rats was determined after ip administration; assay type: functional
Mus musculus [4] = experiment: Potency inhibiting tonic extensor seizures from low-intensity corneal electroshock in mice following peroral administration.; assay type: functional
Mus musculus [5] = experiment: Potency of the inhibiting ataxia in mice following peroral administration.; assay type: functional
[6] = molecular target: Sodium channel alpha subunits; brain (Types I, II, III) (Rattus norvegicus, UniProt P04775+P04774+P08104); experiment: Inhibition of veratridine-stimulated [14C]- guanidine influx into rat cortical slice; assay type: functional
Rattus norvegicus [7] = species: Rattus norvegicus; experiment: Potency inhibiting focal seizures in rat hippocampus preventing hippocampal after discharges; assay type: functional
Rodentia sp. [8] = experiment: Potency inhibiting clonic seizures induced by GABA antagonist pentylene tetrazole(PTZ) in rodents following oral administration.; assay type: functional
Rodentia sp. [9] = experiment: Inhibitory potency against threshold clonic seizures induced by ip picrotoxin in rodents; assay type: functional

| Structure (SMILES) | IC50 (Rattus norvegicus [1]; Rattus norvegicus, 3 h) | also measured |
| --- | --- | --- |
| O=C(O)C1CCCN(CCOC(c2ccc(OC(F)(F)F)cc2)c2ccc(OC(F)(F)F)cc2)C1 (stereo not given) | 0.92 µM |  |
| O=C(O)[C@H]1CCCN(CCOC(c2ccc(Cl)cc2)c2ccc(Cl)cc2)C1 (stereo in doubt; 36) |  | IC50 (Rattus norvegicus [1]): 14 µM |
| Cc1cc(Cl)ccc1C(OCCN1CCCC(C(=O)O)C1)c1ccc(Cl)cc1C (stereo not given) | 3.2 µM |  |
| O=C(O)[C@H]1CN(CCOC(c2ccc(Cl)cc2)c2ccc(Cl)cc2)CC[C@@H]1O | 1.2 µM |  |
| CC(=O)C1CCCN(CCOC(c2ccc(Cl)cc2)c2ccc(Cl)cc2)C1 (stereo not given) | 22 µM |  |
| O=C(O)C1CCCN(CCC(Cc2ccccc2)c2ccccc2)C1 (stereo not given) | 50 µM |  |
| O=C(O)C1CCCN(CCOC2c3ccc(Cl)cc3CCc3cc(Cl)ccc32)C1 (stereo not given) | 1.6 µM |  |
| COC(=O)C1=CCCN(CCOC(c2ccc(C(F)(F)F)cc2)c2ccc(C(F)(F)F)cc2)C1 | 40 µM |  |
| O=C(O)[C@H]1CCCN(CCOC(c2ccc(Cl)cc2)c2ccc(Cl)cc2)C1 (stereo in doubt; 37) |  | IC50 (Rattus norvegicus [1]): 0.18 µM |
| O=C1CCCN1CCOC(c1ccc(Cl)cc1)c1ccc(Cl)cc1 | 26 µM |  |
| O=C(O)C1CCCN(CCOC(c2ccc(F)cc2)c2ccc(F)cc2)C1 (stereo not given) | 7.8 µM |  |
| O=C(O)[C@@H]1CCCNC1 [(R)-NIPECOTIC ACID] | 5.2 µM | IC50 (Rattus norvegicus [2]): 5.2 µM |
| CNC(=O)C1CCCN(CCOC(c2ccc(Cl)cc2)c2ccc(Cl)cc2)C1 (stereo not given) | 40 µM |  |
| O=C(O)C1CCCN(CCOC2c3ccccc3C=Cc3ccccc32)C1 (stereo not given) | 2.5 µM |  |
| O=C(O)C1CCN(CCOC(c2ccc(Cl)cc2)c2ccc(Cl)cc2)C1 (stereo not given) | > 50 µM |  |
| O=C(O)C1CCCN(CCOC(c2ccc(Cl)cc2)c2cccs2)C1 (stereo not given) | 3.6 µM |  |
| O=C(O)C1=CCCNC1 [GUVACINE] | 7.3 µM |  |
| Cc1ccc(C(OCCN2CCCC(C(=O)O)C2)c2ccc(C)cc2)cc1 (stereo not given) | 5.7 µM |  |
| NC(=O)N1c2ccccc2C=Cc2ccccc21 [CARBAMAZEPINE] | > 50 µM |  |
| O=C(O)C1CCCN(CCOC(c2ccc(Cl)cc2)c2ccco2)C1 (stereo not given) | 8.7 µM |  |
| CCCC(CCC)C(=O)O [VALPROIC ACID] | > 50 µM |  |
| Clc1ccc(C(OCCN2CCCCC2)c2ccc(Cl)cc2)cc1 | 21 µM |  |
| O=C(O)C1CCCN(CCOC(c2ccc(Cl)c(Cl)c2)c2ccc(Cl)c(Cl)c2)C1 (stereo not given) | 2.5 µM |  |
| O=C(O)C1CCCN(CCOC(c2ccccc2)c2ccc(Cl)c(Cl)c2)C1 (stereo not given) | 1.2 µM |  |
| Cl.O=C(O)C1CCCN(CCOC(c2ccc(Cl)cc2)c2ccc(Cl)cc2)C1 (stereo not given) | 0.41 µM | ED50 (Rattus norvegicus [3]): 25 mg/kg |
| O=C(O)C1CCCN(CCOC(c2ccc(Cl)cc2)c2ccc(Cl)c(C(F)(F)F)c2)C1 (stereo not given) | 1.4 µM |  |

| Structure (SMILES) | IC50 (Rattus norvegicus [1]; Rattus norvegicus, 3 h) | also measured |
| --- | --- | --- |
| O=C(O)CC1CCN(CCOC(c2ccc(Cl)cc2)c2ccc(Cl)cc2)C1 (stereo not given) | 2.7 µM |  |
| O=C(O)C1CCCN(CCOC(c2ccccc2)c2ccc(Cl)cc2)C1 (stereo not given) | 20 µM |  |
| O=C1NC(=O)C(c2ccccc2)(c2ccccc2)N1 [PHENYTOIN] | > 50 µM |  |
| O=C(O)C1CCCN(CCc2oc3ccccc3c2-c2ccccc2)C1 (stereo not given) | 22 µM |  |
| O=C(O)C1CCCN(CC(=O)C(c2ccccc2)c2ccccc2)C1 (stereo not given) | > 50 µM |  |
| NC(=O)C1CCCN(CCOC(c2ccc(Cl)cc2)c2ccc(Cl)cc2)C1 (stereo not given) | 35 µM |  |
| O=C(O)C1CCCN(CCSC(c2ccccc2)c2ccccc2)C1 (stereo not given) | 60 µM |  |
| COC(=O)C1CCCN(CCOC(c2ccc(Cl)cc2)c2ccc(Cl)cc2)C1 (stereo not given) | 0.7 µM |  |
| CN(C)C(=O)C1CCCN(CCOC(c2ccc(Cl)cc2)c2ccc(Cl)cc2)C1 (stereo not given) | 25 µM |  |
| O=C(O)[C@H]1CN(CCOC(c2ccc(Cl)cc2)c2ccc(Cl)cc2)CC[C@H]1O | 1.5 µM |  |
| O=C(O)C1CCN(CCOC(c2ccc(Cl)cc2)c2ccc(Cl)cc2)CC1 | > 50 µM |  |
| O=C(O)C1CCCN(CCOC(c2ccc(C(F)(F)F)cc2)c2ccc(C(F)(F)F)cc2)C1 (stereo not given) | 0.71 µM |  |
| O=C(CCCN1CCCC(C(=O)O)C1)c1ccc(F)cc1 (stereo not given) | > 50 µM |  |
| N#CC1CCCN(CCOC(c2ccc(Cl)cc2)c2ccc(Cl)cc2)C1 (stereo not given) | > 50 µM |  |
| O=C(O)C1CCCN(CCC2CC2(c2ccccc2)c2ccccc2)C1 (stereo not given) | > 50 µM |  |
| O=C(O)C1CCCN(CCC=C(c2ccccc2)c2ccccc2)C1 (stereo not given) | 10 µM |  |
| CCOC(=O)C1CCCN(CCOC(c2ccc(Cl)cc2)c2ccc(Cl)cc2)C1 (stereo not given) | 11 µM |  |
| O=C(O)[C@H]1CCCNC1 [(S)-NIPECOTIC ACID] | 55 µM |  |
| Cl.O=C(O)C1=CCCN(CCOC(c2ccc(C(F)(F)F)cc2)c2ccc(C(F)(F)F)cc2)C1 | 0.34 µM | ED50 (Mus musculus [4]): 1 mg/kg; ED50 (Mus musculus [5]): 64 mg/kg; IC50 [6]: 10 µM; ED50 (Rattus norvegicus [7]): 2.6 mg/kg; ED50 (Rodentia sp. [8]): 0.4 mg/kg; Ataxia (Rodentia sp. [9]): 1.7% |
| O=C(O)C1CCCN(CCOC(c2ccccc2)c2ccccc2)C1 (stereo not given) | 3.4 µM |  |
| O=C(O)C1CCCN(CCCOC(c2ccccc2)c2ccccc2)C1 (stereo not given) | 12 µM |  |
| OCC1CCCN(CCOC(c2ccc(Cl)cc2)c2ccc(Cl)cc2)C1 (stereo not given) | 47 µM |  |
| O=C(O)C1CCCN(CCOC(c2ccc(Cl)c(Cl)c2)C2CCCCC2)C1 (stereo not given) | 1.1 µM |  |
| O=C(O)C1CCCN(CCCOC(c2ccccc2)(c2ccccc2)c2ccccc2)C1 (stereo not given) | 7.9 µM |  |
| Cl.O=C(O)C1=CCCN(CCOC(c2ccc(Cl)cc2)c2ccc(Cl)cc2)C1 | 0.41 µM | ED50 (Rattus norvegicus [3]): 14 mg/kg |
